Experimental data as given in article PMC6768323, “Adverse Maternal, Fetal, and Postnatal Effects of Hexafluoropropylene Oxide Dimer Acid (GenX) from Oral Gestational Exposure in Sprague-Dawley Rats” (Environmental Health Perspectives, 2019).
“And” between values parts separate entries of the source, which are not always exact repeats. Identical values can stand only once.

How the values were obtained:
[1] = test system: PPAR signaling pathway genes, maternal liver; assay: Maternal liver (GD18) PPAR gene array, fold induction versus control; oral dosing GD14-18; rows per gene in dose order 1, 3, 10, 30, 62.5, 125, 250, 500 mg/kg/d; assay type: in vivo, Sprague-Dawley rats
Protocol: (§1) A total of three blocks of 15 dams per block were dosed once daily from GD14–18 with either water vehicle (control) or HFPO-DA to evaluate fetal and maternal effects (Figure 1A). The first block of dams was dosed with control, 62.5, 125, 250, or 500mg/kg HFPO-DA ( n=3 dams for each). The second and third blocks of dams were dosed with control, 1, 3, 10, or 30mg/kg HFPO-DA ( n=3 per dose per block). Total sample sizes were n=9 for control, n=6 for 1, 3, 10, 30mg/kg , and n=3 for 62.5, 125, 250, and 500mg/kg HFPO-DA. In the first two blocks, spanning the entire dose range, we evaluated fetal testis testosterone production, fetal testis gene expression, fetal and maternal liver gene expression, fetal body weight, and maternal serum thyroid hormone and lipid concentrations. In the third block, encompassing the lower dose range utilized here, we collected fetal plasma for measuring HFPO-DA concentrations. Across all three blocks we evaluated maternal weight gain during dosing, reproductive output (number of fetuses and resorptions), maternal serum HFPO-DA concentration, and maternal liver weight at necropsy.
(§2) For the first two blocks, spanning the full dose range, late gestation (GD18) dams were euthanized by decapitation at ∼2h after the final oral dose [ ∼0830–1000 hours Eastern Standard Time (EST)]. Trunk blood was collected and serum isolated via centrifugation ( 10,000×g for 15 min at 4°C) in vacutainer tubes, transferred to 1.5-mL microcentrifuge tubes and stored at −80°C . Dam liver weight was recorded and a sample of liver tissue was collected into a polypropylene microcentrifuge tube containing 500μL TRIzol Reagent (Invitrogen) on ice. Fetuses were removed and two randomly selected fetuses per litter were weighed. Fetal testes were collected from all male pups with a single testis from the first three males used for determination of ex vivo testosterone production and the remaining testes were homogenized and preserved in TRIzol Reagent for gene expression analysis. The liver was collected from a single, randomly selected fetus per dam/litter for gene expression analysis and transferred to a polypropylene microcentrifuge tube containing 500μL TRIzol Reagent (Invitrogen) on ice. Both dam and fetal liver samples were individually homogenized using a Bullet Blender (Next Advance) with 1-mm zirconium oxide beads, transferred to clean tubes, and stored at −80°C prior to RNA extraction (see below). Ex vivo fetal testis testosterone production was measured as previously reported ([Wilson et al. 2004b]) except the radioimmunoassay (RIA) utilized here was supplied by ALPCO (Catalog No. 72-TESTO-CT2, ALPCO). Briefly, one testis was isolated from each of three separate male fetuses in each litter and incubated in a humidified atmosphere at 37°C for 3 h in 500μL of M-199 media (phenol red–free; Hazelton Biologics, Inc.) supplemented with 10% dextran-coated charcoal-stripped fetal bovine serum (Hyclone Laboratories) in 24-well plates under gentle agitation. After incubation, media were removed and stored in siliconized microcentrifuge tubes at −80°C until RIA analyses, which were performed according to manufacturer specifications.
Gene expression in fetal testes and fetal/maternal livers was assessed using reverse transcriptase real-time PCR of cDNA synthesized from RNA extracted from sample homogenates. RNA extraction was conducted according to TRIzol Reagent manufacturer specifications using chloroform and isopropanol. Following extraction, RNA was purified using the RNeasy Mini Kit (Catalog No. 74104; Qiagen). RNA concentration and purity (260:280 ratio ≥1.8 ) were determined with a NanoDrop 2000 spectrophotometer (Thermo Scientific). For the fetal testes, a 96-well gene array plate was previously custom designed to contain 89 target genes and 3 housekeeping genes, an intra-assay control, a genomic DNA control, a reverse transcriptase control, and a positive PCR control [see Table S1; SABioscience; ([Hannas et al. 2012])]. […]

fetal testis = assay: Ex vivo fetal testis testosterone production; assay type: in vivo, Sprague-Dawley rats; details: any dose
Protocol: For the first two blocks, spanning the full dose range, late gestation (GD18) dams were euthanized by decapitation at ∼2h after the final oral dose [ ∼0830–1000 hours Eastern Standard Time (EST)]. Trunk blood was collected and serum isolated via centrifugation ( 10,000×g for 15 min at 4°C) in vacutainer tubes, transferred to 1.5-mL microcentrifuge tubes and stored at −80°C . Dam liver weight was recorded and a sample of liver tissue was collected into a polypropylene microcentrifuge tube containing 500μL TRIzol Reagent (Invitrogen) on ice. Fetuses were removed and two randomly selected fetuses per litter were weighed. […] Ex vivo fetal testis testosterone production was measured as previously reported ([Wilson et al. 2004b]) except the radioimmunoassay (RIA) utilized here was supplied by ALPCO (Catalog No. 72-TESTO-CT2, ALPCO). […]
Fetal testis testosterone production was normalized to the mean control concentration within a given block and analyzed as percentage of control values across blocks. Maternal liver weight was analyzed using body weight as a covariate within PROC GLM followed by pairwise comparison using LSMEANS, this analysis produces linear regressions of body weight versus liver weight for each dose group. […]

[2] = test system: pregnant Sprague-Dawley rats; assay: Maternal and fetal effects of GD14-18 oral dosing (weights, reproductive output); assay type: in vivo
Protocol: as §1, §2
For the third block, dosed with the lower dose range ( 1–30mg/kg HFPO-DA), late gestation (GD18) dams were euthanized by decapitation ∼2h after the final dose, liver weight was recorded, and trunk blood was collected for serum isolation. Serum was isolated from trunk blood via centrifugation ( 10,000×g; 15 min; 4°C) using Becton Dickinson vacutainer tubes and stored in 1.5-mL siliconized microcentrifuge tubes at −80°C for future analyses. Fetuses were removed and fetal blood was collected from the jugular vein from all fetuses within a litter using heparinized glass capillary tubes. Blood was expelled from capillary tubes using fine-tip disposable transfer pipets into a microcentrifuge tube forming a single composite sample per litter. […]

Sprague-Dawley rats = details: cited from earlier work
[3] = female rat, oral 10-30 mg/kg; ref Gannon et al. 2016; cited from earlier work

O=C(O)C(F)(OC(F)(F)C(F)(F)C(F)(F)F)C(F)(F)F (stereo not shown) [HFPO-DA, Hexafluoropropylene oxide dimer acid]
Acox3 ([1]; dose order): 1.3 fold and 0.9 fold and 1.2 fold and 1.1 fold and 1.0 fold
Acsl1 ([1]; dose order): 1.3 fold and 1.5 fold and 1.1 fold and 1.7 fold and 1.6 fold and 1.8 fold
Acsl4 ([1]; dose order): 1.0 fold and 0.7 fold and 0.9 fold and 1.3 fold and 1.2 fold
Angptl4 ([1]; dose order): 2.3 fold and 3.4 fold and 2.1 fold and 3.6 fold and 3.0 fold and 2.9 fold and 2.5 fold
Apoa1 ([1]; dose order): 0.9 fold and 1.0 fold and 0.7 fold
Apoe ([1]; dose order): 1.2 fold and 0.8 fold and 0.9 fold and 0.7 fold
Cd36 ([1]; dose order): 0.8 fold and 1.2 fold and 0.9 fold and 1.0 fold and 1.1 fold
Clu ([1]; dose order): 1.1 fold and 1.4 fold and 0.8 fold and 1.3 fold and 1.2 fold and 1.5 fold and 1.6 fold
Creb1 ([1]; dose order): 1.1 fold and 0.9 fold and 1.0 fold and 0.8 fold
Crebbp ([1]; dose order): 1.3 fold and 0.9 fold and 1.0 fold
Dgat1 ([1]; dose order): 1.1 fold and 1.3 fold and 1.2 fold and 1.5 fold and 1.6 fold and 1.8 fold and 1.9 fold
Ep300 ([1]; dose order): 1.3 fold and 1.4 fold and 0.8 fold and 1.1 fold and 1.0 fold
Etfdh ([1]; dose order): 1.2 fold and 1.6 fold and 1.4 fold and 1.5 fold
Fabp5 ([1]; dose order): 1.0 fold and 1.3 fold and 1.2 fold and 0.8 fold
Fabp7 ([1]; dose order): 2.0 fold and 1.1 fold and 1.9 fold and 1.8 fold and 1.3 fold and 1.7 fold
Gk ([1]; dose order): 1.2 fold and 1.1 fold and 1.3 fold and 1.4 fold and 0.8 fold
Hif1a ([1]; dose order): 1.2 fold and 1.0 fold and 1.1 fold and 1.3 fold
Hspd1 ([1]; dose order): 1.1 fold and 1.2 fold and 1.3 fold and 1.9 fold and 1.8 fold and 2.2 fold and 2.1 fold
Ilk ([1]; dose order): 1.2 fold and 0.9 fold and 1.1 fold and 1.0 fold
Klf10 ([1]; dose order): 1.8 fold and 2.0 fold and 1.5 fold and 2.5 fold and 2.3 fold and 2.4 fold
Lpin1 ([1]; dose order): 1.2 fold and 1.4 fold and 0.8 fold and 1.1 fold and 1.0 fold and 0.9 fold
Med1 ([1]; dose order): 1.2 fold and 1.3 fold and 0.7 fold and 1.0 fold and 0.8 fold and 0.9 fold and 1.1 fold
Ncoa3 ([1]; dose order): 1.4 fold and 0.8 fold and 1.0 fold and 0.9 fold
Ncoa6 ([1]; dose order): 1.4 fold and 1.2 fold and 1.1 fold and 0.7 fold and 0.8 fold and 0.9 fold
Nr1h3 ([1]; dose order): 1.1 fold and 1.5 fold and 0.8 fold and 1.6 fold and 1.3 fold
Pdpk1 ([1]; dose order): 0.9 fold and 1.0 fold and 0.8 fold and 1.1 fold
Pltp ([1]; dose order): 1.2 fold and 0.7 fold and 0.9 fold and 1.4 fold and 1.1 fold and 1.0 fold
Ppara ([1]; dose order): 0.8 fold and 0.7 fold and 0.6 fold and 1.0 fold and 0.9 fold and 1.1 fold
Ppargc1b ([1]; dose order): 1.1 fold and 1.3 fold and 0.9 fold and 0.8 fold and 0.7 fold
Pprc1 ([1]; dose order): 1.2 fold and 1.0 fold and 1.4 fold and 1.5 fold
Pten ([1]; dose order): 0.8 fold and 1.1 fold and 0.9 fold and 1.0 fold
Pyy ([1]; dose order): 1.6 fold and 1.3 fold and 1.1 fold and 1.2 fold and 2.0 fold and 2.1 fold and 1.8 fold
Rxra ([1]; dose order): 1.2 fold and 1.4 fold and 0.7 fold and 1.0 fold and 1.1 fold
Rxrb ([1]; dose order): 1.5 fold and 1.4 fold and 0.9 fold and 1.1 fold and 0.8 fold and 1.0 fold
Rxrg ([1]; dose order): 1.5 fold and 1.6 fold and 1.1 fold and 1.7 fold and 1.3 fold
Sirt1 ([1]; dose order): 1.0 fold and 1.1 fold and 0.8 fold and 0.9 fold
Slc27a1 ([1]; dose order): 1.5 fold and 1.6 fold and 0.9 fold and 1.4 fold and 1.1 fold and 1.0 fold and 1.3 fold
Slc27a2 ([1]; dose order): 1.3 fold and 1.8 fold and 2.1 fold and 2.2 fold and 2.3 fold
Slc27a4 ([1]; dose order): 1.3 fold and 1.5 fold and 0.8 fold and 1.0 fold and 1.1 fold and 0.9 fold
Tgs1 ([1]; dose order): 0.8 fold and 0.9 fold and 0.7 fold and 1.1 fold
number of up-regulated genes shared by maternal and fetal livers ([1]; rat, in vivo): 16 genes
fetal testis testosterone production versus controls (fetal testis): not significantly different from controls at any dose
numbers of live pups, resorptions, fetal body weight compared with controls ([2]; 1-500 mg/kg): no significant differences
Dam BW GD18 ([2]; 1-500 mg/kg/d): 378.6 ± 19.1 g and 364.1 ± 15.6 g and 371.5 ± 11.4 g and 354.3 ± 12.4 g and 366.2 ± 9.9 g and 346.7 ± 5.5 g and 350.2 ± 6.0 g and 369.8 ± 15.1 g
No. fetuses ([2]; 1-500 mg/kg/d): 12.3 ± 1.0 and 13.3 ± 0.6 and 13.2 ± 0.5 and 13.5 ± 0.4 and 12.7 ± 0.9 and 14.3 ± 0.3 and 13.7 ± 1.3 and 14.7 ± 0.3
maternal body weight gain compared with controls ([2]; GD14-18 dosing window): significantly less body weight gain at the 250- and 500-mg/kg dose levels
Dam liver wt ([2]; GD18, 1-500 mg/kg/d): 15.8 ± 0.7 g and 16.7 ± 1.1 g and 16.5 ± 0.5 g and 17.2 ± 0.5 g and 17.8 ± 0.7 g and 19.1 ± 0.6 g and 19.6 ± 0.3 g and 19.2 ± 0.6 g
Fetal BW ([2]; GD18, 1-500 mg/kg/d): 908.7 ± 27.0 mg and 816.7 ± 24.2 mg and 841.0 ± 38.4 mg and 842.2 ± 50.5 mg and 863.7 ± 31.7 mg and 841.8 ± 46.7 mg and 889.1 ± 26.9 mg and 808.2 ± 88.9 mg
Dam BW GD14 ([2]; dose order 1, 3, 10, 30, 62.5, 125, 250, 500 mg/kg/d): 337.0 ± 12.9 g and 341.6 ± 14.1 g and 330.8 ± 13.4 g and 338.0 ± 11.5 g and 320.9 ± 8.7 g and 330.6 ± 8.8 g and 325.8 ± 3.7 g and 339.1 ± 10.5 g
dose with higher maternal liver weights ([2]; oral GD14-18): ≥ 62.5 mg/kg
NOAEL (Sprague-Dawley rats; ref Caverly Rae et al. 2015): 1 mg/kg per day
upper dose tolerated in the rat (Sprague-Dawley rats; ref Caverly Rae et al. 2015): 500 mg/kg per day
NOAEL, prenatal developmental toxicity study (Sprague-Dawley rats; ref DuPont 2010): 10 mg/kg per day
dose overtly toxic to the dam (Sprague-Dawley rats; ref DuPont 2010): 1,000 mg/kg per day
half-life [3]: ~5 h
